How the values were obtained:
human i-20S β5i [1] = biological target: T1, human i-20S β5i (Homo sapiens, UniProt P28062); test: IC50 determination against human i-20S β5i; type: biochemical; settings: for reduction in β5i activity: relative to PKS2086; for inhibitory activity against β5i (SAR statement in words): relative to the parent compound of the sentence
human c-20S β5c = human c-20S β5c (Homo sapiens, UniProt P28074); test: IC50 determination against human c-20S β5c; type: biochemical; settings: relative to the parent compound of the sentence
[2] = system: T cell proliferation in PBMCs; test: Human PBMC proliferation assay; type: cell-based
α-chymotrypsin = α-chymotrypsin (Bos taurus, UniProt P00766); test: Protease counter-screen, α-chymotrypsin; type: biochemical; settings: compounds at 100, 33.3 and 11.1 μM
cathepsin L = cathepsin L (Homo sapiens, UniProt P07711); test: Protease counter-screen, cathepsin L; type: biochemical; settings: compounds at 100, 33.3 and 11.1 μM
human i-20S β5i [3] = biological target: T1, human i-20S β5i; settings: previously reported; cited from earlier work

Sequence of cathepsin L (P07711 114-333, species assumed): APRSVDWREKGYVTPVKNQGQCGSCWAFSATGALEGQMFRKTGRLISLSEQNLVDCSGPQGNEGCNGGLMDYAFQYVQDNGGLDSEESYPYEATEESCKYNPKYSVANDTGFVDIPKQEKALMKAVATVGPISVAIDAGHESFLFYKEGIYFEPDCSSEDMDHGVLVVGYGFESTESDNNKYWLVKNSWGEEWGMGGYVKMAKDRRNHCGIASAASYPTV

Row | SMILES | inhibitory activity against β5i (SAR statement in words) (human i-20S β5i [1]) | inhibitory activity against β5c (SAR statement in words) (human c-20S β5c) | further results
1 | COC[C@H](NC(=O)[C@H](CC(=O)NOC(C)(C)C)NC(=O)CCc1ccccc1)C(=O)NCc1cccc2cccnc12 [PKS2220] |  |  | reduction in β5i activity (human i-20S β5i [1]): 19 fold
2 | C[C@H](NC(=O)[C@H](CCC(=O)NC(C)(C)C)NC(=O)CCc1ccccc1)C(=O)NCc1ccc(F)c2ccccc12 [PKS21210] | equipotent |  | 
3 | COC[C@H](NC(=O)CCc1ccccc1)C(=O)N[C@@H](C)C(=O)NCc1cccc2ccccc12 [PKS2048] | abolished the inhibitory activities | abolished the inhibitory activities | 
4 | C[C@H](NC(=O)[C@H](CC(=O)NOC(C)(C)C)NC(=O)CCc1ccccc1)C(=O)NCc1cccc2ncccc12 [PKS2073] | eliminated inhibitory activity | eliminated inhibitory activity | 
5 | COC[C@H](NC(=O)[C@H](CC(=O)NOC(C)(C)C)NC(=O)CCc1ccccc1)C(=O)NCc1cccc(OC)c1OC [PKS2211] |  |  | selectivity for β5i over β5c (statement in words) (human i-20S β5i [1]): abolished selectivity
6 | C[C@H](NC(=O)[C@H](CC(=O)NOC(C)(C)C)NC(=O)CCc1ccccc1)C(=O)NCc1cccc2[nH]ccc12 [PKS2083] | decreased potency against β5i | increased activity against β5c | 
7 | COC[C@H](NC(=O)[C@H](CCC(=O)NC(C)(C)C)NS(=O)(=O)c1ccc(C)cc1)C(=O)NCc1ccc(F)c2ccccc12 [PKS21265] |  |  | greater potency against T cells ([2]; compared to PKS21209): 2 fold; greater potency against T cells ([2]; compared to PKS21266): 5 fold
8 | NC(=O)C[C@H](NC(=O)CCc1ccccc1)C(=O)N[C@@H](Cc1ccc(F)cc1)C(=O)NCc1cccc2ccccc12 [PKS21083] |  | abolished the inhibitory activities | 
9 | C[C@H](NC(=O)[C@H](CC(=O)NC(C)(C)C)NC(=O)C(=O)c1c[nH]c2ccccc12)C(=O)NCc1cccc2ccccc12 [PKS3053] |  |  | inhibition of α-chymotrypsin (α-chymotrypsin): weak inhibition; inhibition of cathepsin L (cathepsin L): weak inhibition; activity against T cells relative to comparator ([2]; compared to PKS21210): two times more active; activity against T cells relative to comparator ([2]; compared to PKS21272): > 3 times
10 | COC[C@H](NC(=O)[C@H](CC(=O)NOC(C)(C)C)NC(=O)CCc1ccccc1)C(=O)NCc1cccc(OC)c1 [PKS2160] |  |  | selectivity for β5i over β5c (statement in words) (human i-20S β5i [1]): abolished selectivity
11 | COC[C@H](NC(=O)[C@H](CC(=O)NOC(C)(C)C)NC(=O)CCc1ccccc1)C(=O)NCc1cccc2c1NCCC2 [PKS2226] |  |  | reduction in β5i activity (human i-20S β5i [1]): 114 fold
12 | C[C@H](NC(=O)[C@H](CC(=O)NOC(C)(C)C)NC(=O)CCc1ccccc1)C(=O)NCc1ccnc2ccccc12 [PKS2068] | eliminated inhibitory activity | eliminated inhibitory activity | 
13 | COC[C@H](NC(=O)[C@H](CC(=O)N(C)C)NC(=O)CCc1ccccc1)C(=O)NCc1cccc2ccccc12 [Compound 2230BP] |  | significant loss of affinity | 
14 | COC[C@H](NC(=O)[C@H](CC(=O)N1CCC1)NC(=O)CCc1ccccc1)C(=O)NCc1cccc2ccccc12 [PKS2209] |  | significant loss of affinity | 
15 | CC(C)(C)ONC(=O)C[C@H](NC(=O)CCc1ccccc1)C(=O)N[C@@H](Cc1ccc(F)cc1)C(=O)NCc1cccc2ccccc12 [DPLG3] |  |  | β5i inhibitory potency (human i-20S β5i [3]): single-digit nanomolar potency

From publication PMC8086754 (Journal of medicinal chemistry, 2020)
